Counter-ions that a name gives are not always drawn.
Target: T1, BRD4 BD2 (Homo sapiens, UniProt O60885, Y97A)
T1 construct: BRD4 (1-477) (Y97A) and (Y390A); made in house; host or cells: E. coli (pET15b vector)
Assay: TR-FRET binding assay, BRD4 BD2 (BD1-mutated protein)
Conditions: read-out: pIC50 in the BRD4 BD2 assay (converted)
Procedure: Time Resolved Fluorescence Resonance Energy Transfer (TR-FRET) Assay Binding was assessed using a time resolved fluorescent resonance energy transfer binding assay. This utilises a 6 His purification tag at the N-terminal of the proteins as an epitope for an anti-6 His antibody labeled with Europium chelate (PerkinElmer AD0111) allowing binding of the Europium to the proteins which acts as the donor fluorophore. A small molecule, high affinity binder of the bromodomains BRD2, BRD3, BRD4 and BRDT has been labeled with Alexa Fluor647 (Reference Compound X) and this acts as the acceptor in the FRET pair.
In the absence of a competing compound, excitation of the Europium causes the donor to emit at λ618 nm which excites the Alexa labelled bromodomain binding compound leading to an increased energy transfer that is measurable at λ647 nM. In the presence of a sufficient concentration of a compound that can bind these proteins, the interaction is disrupted leading to a quantifiable drop in fluorescent resonance energy transfer.
The binding of the compounds of formula (I) to Bromodomains BRD2, BRD3, BRD4 and BRDT was assessed using mutated proteins to detect differential binding to either Binding Domain 1 (BD1) or Binding Domain 2 (BD2) on the bromodomain. These single residue mutations in the acetyl lysine binding pocket greatly lower the affinity of the fluoroligand (Reference Compound X) for the mutated domain (>1000 fold selective for the non-mutated domain). Therefore in the final assay conditions, binding of the fluoroligand to the mutated domain cannot be detected and subsequently the assay is suitable to determine the binding of compounds to the single non-mutated bromodomain.
Recombinant Human Bromodomains [(BRD2 (1-473) (Y113A) and (Y386A), BRD3 (1-435) (Y73A) and (Y348A) BRD4 (1-477) (Y97A) and (Y390A) and BRDT (1-397) (Y66A) and (Y309A)] were expressed in E. coli cells (in pET15b vector for BRD2/3/4 and in pET28a vector for BRDT) with a 6-His tag at the N-terminal. The His-tagged Bromodomain pellet was resuspended in 50 mM HEPES (pH7.5), 300 mM NaCl, 10 mM imidazole & 1 μl/ml protease inhibitor cocktail and extracted from the E. coli cells using sonication and purified using a nickel sepharose high performance column, the proteins were washed and then eluted with a linear gradient of 0-500 mM imidazole with buffer 50 mM HEPES (pH7.5), 150 mM NaCl, 500 mM imidazole, over 20 column volumes. Final purification was completed by Superdex 200 prep grade size exclusion column. Purified protein was stored at −80° C. in 20 mM HEPES pH 7.5 and 100 mM NaCl. Protein identity was confirmed by peptide mass fingerprinting and predicted molecular weight confirmed by mass spectrometry.
All assay components were dissolved in buffer composition of 50 mM HEPES pH7.4, 50 mM NaCl, 5% Glycerol, 1 mM DTT and 1 mM CHAPS. The final concentration of bromodomain proteins were 10 nM and the Alexa Fluor647 ligand was at Kd. These components were premixed and 5 μl of this reaction mixture was added to all wells containing 50 nl of various concentrations of test compound or DMSO vehicle (0.5% DMSO final) in Greiner 384 well black low volume microtitre plates and incubated in dark for 30 minutes at rt. 5 μl of detection mixture containing 1.5 nM final concentration anti-6His Europium chelate was added to all wells and a further dark incubation of at least 30 minutes was performed. Plates were then read on the Envision platereader, (λex=317 nm, donor λem=615 nm; acceptor λem=665 nm; Dichroic LANCE dual). Time resolved fluorescent intensity measurements were made at both emission wavelengths and the ratio of acceptor/donor was calculated and used for data analysis. All data was normalized to the mean of 16 high (inhibitor control—Example 11 of WO 2011/054846A1) and 16 low (DMSO) control wells on each plate. A four parameter curve fit of the following form was then applied: y=a+((b−a)/(1+(10^/10^)^d) […]

IC50 | Structure (SMILES)
1000 to 100000 nM | CC(=O)N1c2ccc(N3CCOCC3)cc2[C@H](Nc2cccc(O)n2)[C@@H](C)[C@@H]1C1CC1 (racemic) [Example 210, rac-1-((2S,3R,4R)-2-cyclopropyl-4-((6-hydroxypyridin-2-yl)amino)-3-methyl-6-morpholino-3,4-dihydroquinolin-1(2H)-yl)ethanone]
1000 to 100000 nM | CC(=O)N1c2ccccc2[C@H](Nc2cccc(C#N)n2)[C@@H](C)[C@@H]1C1CC1 (racemic) [Example 50, rac-6-(((2S,3R,4R)-1-acetyl-2-cyclopropyl-3-methyl-1,2,3,4-tetrahydroquinolin-4-yl)amino)picolinonitrile]
100 nM | CC(=O)N1c2ccc(F)cc2[C@H](Nc2nc(C)ccc2C(N)=O)[C@@H](C)[C@@H]1C [Example 528, 2-(((2S,3R,4R)-1-acetyl-6-fluoro-2,3-dimethyl-1,2,3,4-tetrahydroquinolin-4-yl)amino)-6-methylnicotinamide]
100 nM | CC[C@H]1[C@H](C)[C@@H](Nc2cccc(C)n2)c2ccccc2N1C(C)=O (single isomer, unassigned) [Example 25a]
100 nM | CNCCn1cc(-c2ccc3c(c2)[C@H](Nc2ccc(C#N)cc2)[C@@H](C)[C@H](C2CC2)N3C(C)=O)cn1 (racemic) [Example 134, rac-4-(((2S,3R,4R)-1-acetyl-2-cyclopropyl-3-methyl-6-(1-(2-(methylamino)ethyl)-1H-pyrazol-4-yl)-1,2,3,4-tetrahydroquinolin-4-yl)amino)benzonitrile]
1000 to 100000 nM | CC(=O)N1c2ccc(N3CCNC(C)C3)nc2[C@H](Nc2ccccc2)[C@@H](C)[C@@H]1C1CC1 (mixture of isomers) [Example 107, 1-((rac-2S,3R,4R)-2-cyclopropyyl-3-methyl-6-(3-methylpiperazin-1-yl)-4-(phenylamino)-3,4-dihydro-1,5-naphthyridin-1(2H)-yl)ethanone]
100 nM | CC(=O)N1c2ccccc2[C@H](Oc2ccccc2)[C@@H](C)[C@@H]1C1CC1 (racemic) [Example 119, rac-1-((2S,3S,4R)-2-cyclopropyl-3-methyl-4-phenoxy-3,4-dihydroquinolin-1(2H)-yl)ethanone]
100 nM | CCNC(=O)c1ccc2c(c1)[C@H](Nc1cccc(C)n1)[C@@H](C)[C@H](CC)N2C(C)=O (racemic) [Example 279, rac-(2S,3R,4R)-1-acetyl-N,2-diethyl-3-methyl-4-((6-methylpyridin-2-yl)amino)-1,2,3,4-tetrahydroquinoline-6-carboxamide]
100 nM | CC[C@@H]1[C@@H](C)[C@H](Nc2ccc(C#N)cc2)c2cc(F)ccc2N1C(C)=O (single isomer, unassigned) [Example 147b]
100 nM | COc1cccc(N[C@H]2c3cc(C(N)=O)ccc3N(C(C)=O)[C@@H](C3CC3)[C@@H]2C)c1 [Example 360, (2S,3R,4R)-1-acetyl-2-cyclopropyl-4-((3-methoxyphenyl)amino)-3-methyl-1,2,3,4-tetrahydroquinoline-6-carboxamide]
1000 to 100000 nM | CC(=O)N1c2ccccc2[C@H](Nc2ccccc2)[C@@H](CO)[C@@H]1C1CC1 (racemic) [Example 592, rac-1-((2S,3R,4R)-2-cyclopropyl-3-(hydroxymethyl)-4-(phenylamino)-3,4-dihydroquinolin-1(2H)-yl)ethanone]
1000 to 100000 nM | CC(=O)N1c2ccc(S(=O)(=O)C(C)C)cc2[C@H](Nc2cccc(C)n2)[C@@H](C)[C@@H]1C1CC1 (racemic) [Example 68, rac-1-((2S,3R,4R)-2-cyclopropyl-6-(isopropylsulfonyl)-3-methyl-4-((6-methylpyridin-2-yl)amino)-3,4-dihydroquinolin-1(2H)-yl)ethanone]
1000 to 100000 nM | CNC(=O)c1ccc(N[C@H]2c3cc(C4CCNCC4)ccc3N(C(C)=O)[C@@H](C)[C@@H]2C)cc1 (racemic) [Example 188, rac-4-(((2S,3R,4R)-1-acetyl-2,3-dimethyl-6-(piperidin-4-yl)-1,2,3,4-tetrahydroquinolin-4-yl)amino)-N-methylbenzamide]
1000 to 100000 nM | CC(=O)N1c2ccccc2[C@@H](Nc2ccccc2)[C@H](C)[C@H]1C1CC1 (single isomer, unassigned) [Example 27b]
100 nM | CC(=O)N1c2ccc(N3CCNCC3)cc2[C@H](Nc2ccc(C#N)cc2)[C@@H](C)[C@@H]1C [Example 214, 4-(((2S,3R,4R)-1-acetyl-2,3-dimethyl-6-(piperazin-1-yl)-1,2,3,4-tetrahydroquinolin-4-yl)amino)benzonitrile]
1000 to 100000 nM | CC(=O)N1c2ccc(F)cc2[C@H](Nc2ccnc(O)c2)[C@@H](C)[C@@H]1C1CC1 [Example 531, 1-((2S,3R,4R)-2-cyclopropyl-6-fluoro-4-((2-hydroxypyridin-4-yl)amino)-3-methyl-3,4-dihydroquinolin-1(2H)-yl)ethanone]
100 nM | CC(=O)N1c2ccc(C(N)=O)cc2[C@H](Nc2ccc(C#N)cn2)[C@@H](C)[C@@H]1C1CC1 [Example 400, (2S,3R,4R)-1-acetyl-4-((5-cyanopyridin-2-yl)amino)-2-cyclopropyl-3-methyl-1,2,3,4-tetrahydroquinoline-6-carboxamide]
1000 to 100000 nM | CNC(=O)c1ccc(N[C@@H]2c3cc(C4=CCOCC4)ccc3N(C(C)=O)[C@H](C3CC3)[C@H]2C)cc1 (single isomer, unassigned) [Example 551a]
1000 to 100000 nM | CC(=O)N1c2ccc(N3CCC(N)CC3)nc2[C@H](Nc2ccccc2)[C@@H](C)[C@@H]1C1CC1 (racemic) [Example 109, rac-1-((2S,3R,4R)-6-(4-aminopiperidin-1-yl)-2-cyclopropyl-3-methyl-4-(phenylamino)-3,4-dihydro-1,5-naphthyridin-1(2H)-yl)ethanone]
1000 to 100000 nM | CC[C@@H]1[C@@H](C)[C@H](Nc2cccc(C)n2)c2cc(F)ccc2N1C(C)=O (single isomer, unassigned) [Example 146b]
100 nM | CC(=O)N1c2ccc(N3CCNCC3)cc2[C@H](Nc2ccc(C(N)=O)cc2)[C@@H](C)[C@@H]1C [Example 571, 4-(((2S,3R,4R)-1-acetyl-2,3-dimethyl-6-(piperazin-1-yl)-1,2,3,4-tetrahydroquinolin-4-yl)amino)benzamide]
100 nM | CC(=O)N1c2ccccc2[C@H](Nc2ccccc2)[C@@H](C)[C@@H]1C1CC1 (single isomer, unassigned) [Example 27a]
100 nM | CC(=O)N1c2ccc(F)cc2[C@H](Nc2cccnc2O)[C@@H](C)[C@@H]1C [Example 518, 1-((2S,3R,4R)-6-fluoro-4-((2-hydroxypyridin-3-yl)amino)-2,3-dimethyl-3,4-dihydroquinolin-1(2H)-yl)ethanone]
100 nM | CC(=O)N1c2ccc(N3CCNC(C)C3)cc2[C@H](Nc2ccccc2)[C@@H](C)[C@@H]1C (mixture of isomers) [Example 72, 1-((rac-2S,3R,4R)-2,3-dimethyl-6-(3-methylpiperazin-1-yl)-4-(phenylamino)-3,4-dihydroquinolin-1(2H)-yl)ethanone, formate salt]
1000 to 100000 nM | CNC(=O)c1ccc(N[C@H]2c3cc(N4CCN[C@@H](C)C4)ccc3N(C(C)=O)[C@@H](C3CC3)[C@@H]2C)cc1 (racemic) [Example 228, 4-(((rac-2S,3R,4R)-1-acetyl-2-cyclopropyl-3-methyl-6-((S)-3-methylpiperazin-1-yl)-1,2,3,4-tetrahydroquinolin-4-yl)amino)-N-methylbenzamide]

From patent US11478478B2, “2,3-disubstituted 1-acyl-4-amino-1,2,3,4-tetrahydroquinoline derivatives and their use as bromodomain inhibitors” (GLAXOSMITHKLINE INTELLECTUAL PROPERTY (NO.2) LIMITED, priority 2013, dated 2022)
